Assay: xn = mol fraction of the nth substance listed
Settings: for surface tension liquid-gas / mass density: discharge crucible method; for mass density / viscosity: 100 kPa, Liquid; for viscosity: discharge crucible

[Pb] [lead] + [Sb]
Settings	mass density [kg/m3]	surface tension liquid-gas [mN/m]	viscosity [mPa·s]
573 K, x2 = 0.1675	10206	437.1	2.565
623 K, x2 = 0.1675	10142	433.7	2.262
673 K, x2 = 0.1675	10087	429.9	1.999
673 K, x2 = 0.4	9263	418.3	1.873
723 K, x2 = 0.1675	10019	426.6	1.836
723 K, x2 = 0.4	9201	414.6	1.721
773 K, x2 = 0.1675	9963	422.8	1.694
773 K, x2 = 0.4	9143	411.5	1.573
773 K, x2 = 0.6	8244	400.5	1.561
823 K, x2 = 0.1675	9905	419.1	1.583
823 K, x2 = 0.4	9095	407.8	1.475
823 K, x2 = 0.6	8185	397.1	1.449
873 K, x2 = 0.1675	9862	415.6	1.495
873 K, x2 = 0.4	9042	403.9	1.358
873 K, x2 = 0.6	8138	393.9	1.333
873 K, x2 = 0.9	6977	376.2	1.539
923 K, x2 = 0.1675	9814	411.9	1.425
923 K, x2 = 0.4	8991	400.2	1.266
923 K, x2 = 0.6	8098	390.7	1.211
923 K, x2 = 0.9	6938	372.6	1.357
973 K, x2 = 0.9	6892	368.6	1.212
1023 K, x2 = 0.9	6856	364.4	1.118

— the NIST ThermoML archive (doi:10.1021/acs.jced.7b01049)
